Laboratory results: patent publication US9095573B2, “Method of biasing implanted human neural stem cells away from differentiation into glial cells by (+)phenserine to modulate the concentration of soluble βAPP in tissue or CSF” (priority 2005, dated 2015)

Columns and labels:
APP mRNA = assay: Real time RT-PCR analysis of APP gene expression in cortical and hippocampal tissues; assay type: in vivo; conditions: both APP23 and wild-type mice
Method: (§1) Animals were subsequently divided into two groups that were either sacrificed following 14 days treatment (n=17 APP23 and n=13 wild-type, respectively) or received transplantation of HSNC into the lateral ventricle (n=13 APP23 mice and n=12 wild-type, respectively). […] Brains were removed, dissected into the hippocampus and cortex, and tissue samples were maintained on dry ice and stored at −80° C. until Western blotting and PCR experiments were performed. For the group of transplanted animals, these were transcardially perfused with PBS and 4% paraformaldehyde (pH 7.4). Brains were removed and post-fixed for 8-12 h in 4% paraformaldehyde, and cryoprotected in 20% sucrose-PBS overnight. […]
Total RNA from hippocampal and cortical tissues from each animal treated with either (+)-phenserine or saline was isolated with Trizol reagent (Invitrogen) according to the manufacturer's protocol. […] Relative quantification with Real-time PCR was determined using the MyiQ Real-Time PCR Detection System Software (Bio-Rad), and reactions were performed in a thermal iCycler using the Bio-Rad MyiQ IQ SYBR Green Supermix (Bio-Rad) according to the following conditions; denaturation of cDNA for 5 min at 94° C.; amplification (40 cycles) for 30 sec at 94° C., annealing at 56° C. for 30 sec, and extension at 72° C. for 30 sec, with a final extension at 72° C. for 5 min. […]

[1] = tested on: transplanted human neural stem cells (HNSCs); assay: Glial differentiation of transplanted HNSCs (BrdU+/GFAP+ cell counts, fluorescent immunohistochemistry); assay type: in vivo, APP23 and wild-type mice; conditions: hippocampus of wild-type mice; 6 weeks after HNSC transplantation; 25 mg/kg
Method: (§2) HNSCs originally isolated from fetal cortical tissue were purchased from BioWhittaker (Walkersville, Md.) and the cells were expanded and passaged in a serum-free culture medium, as described in detail previously (Brannen and Sugaya, 2000). Briefly, HNSCs were cultured in 20 ml serum-free supplemented growth medium consisting of Ham's F12/DMEM (Gibco, Burlington, ON), EGF (20 ng/ml, R & D Systems), FGF (20 ng/ml, R & D Systems, Minneapolis, Minn.), B27 (1:50, Gibco), heparin (5 μg/ml, Sigma, St. Louis, Mo.) and antibiotic-antimycotic mixure (1:100, Gibco) at 37° C. in a 5% humidified incubation chamber (Brannen and Sugaya, 2000). Prior to transplantation, HNSCs were incubated with 3 μM bromo-deoxyuridine (BrdU, Sigma) for 48 hr to label cell nuclei to distinguish them from the host cells.
as §1, with “7.4).” for “7.4). Brains were removed and post-fixed for 8-12 h in 4% paraformaldehyde, and cryoprotected in 20% sucrose-PBS overnight.”

[2] = tested on: transplanted human neural stem cells (HNSCs); assay: Neuronal differentiation of transplanted HNSCs (BrdU+/β-III tubulin+ cell counts, fluorescent immunohistochemistry); assay type: in vivo, APP23 and wild-type mice; conditions: wild-type mice, CA1 hippocampal region only; p<0.05; 25 mg/kg
Method: as §2
as §1, with “7.4).” for “7.4). Brains were removed and post-fixed for 8-12 h in 4% paraformaldehyde, and cryoprotected in 20% sucrose-PBS overnight.”

cholinesterase = conditions: Greig et al., U.S. Patent Pub. 2004/0024043 and 2004/0138282; cited from earlier work

## (+)-phenserine
APP mRNA
  change in APP gene expression: no significant changes
[1]
  difference in number of BrdU+/GFAP+ double immuno-positive cells: No significant differences
[2]
  increase in number of BrdU+/β-III tubulin+ cells: 40%
cholinesterase
  cholinesterase activity: lacks cholinesterase activity
